Measured values as given in US20230172930A1, “USE OF COMPLEMENT FACTOR D INHIBITORS ALONE OR IN COMBINATION WITH ANTI-C5 ANTIBODIES FOR TREATMENT OF PAROXYSMAL NOCTURNAL HEMOGLOBINURIA” (Alexion Pharmaceuticals, Inc., priority 2020, published 2023).

System: PNH patients with an inadequate response to eculizumab
Assay: Phase 2 open-label study of danicopan added to eculizumab: laboratory markers of PNH (Hgb, LDH, reticulocytes, bilirubin)
Type: in vivo, human
Conditions: for Direct bilirubin, mean / LDH, mean / Reticulocytes, mean / Total bilirubin, mean: all patients N=11
Method: All doses were taken approximately 15-30 minutes after completion of a meal or snack. Dose escalations, to a maximum of 200 mg three times a day, were based on safety and hemoglobin values and permitted at 4-week intervals through week 12 at 50 mg increments. If the patient had not already reached the 200 mg three times daily maximal dose by week 12, escalation was permitted if clinically indicated. […] Patients completing treatment with clinical benefit entered a long-term extension phase.
Descriptive statistics are provided for biochemical, quality-of-life measurements, and transfusion data. Continuous variables are summarized with mean, median, minimum and maximum values. Categorical variables, e.g., transfusion-independent, are summarized with counts and percentages. Missing values were not imputed.

[1] = Patient A, Baseline, before danicopan, on eculizumab 900 mg q14d
[2] = Patient A, Week 12, danicopan 150 mg TID + eculizumab 900 mg q14d
[3] = Patient A, Week 24, danicopan 150 mg TID + eculizumab 900 mg q14d
[4] = Patient B, Baseline, before danicopan, on eculizumab 1200 mg q14d
[5] = Patient B, Week 12, danicopan 100 mg TID + eculizumab 900 mg q14d
[6] = Patient B, Week 24, danicopan 100 mg TID + eculizumab 900 mg q14d
[7] = Patient C, Baseline, before danicopan, on eculizumab 900 mg q14d
[8] = Patient C, Week 12, danicopan 150 mg TID + eculizumab 900 mg q14d
[9] = Patient C, Week 24, danicopan 150 mg TID + eculizumab 900 mg q14d
[10] = Patient D, Baseline, before danicopan, on eculizumab 900 mg q14d
[11] = Patient D, Week 12, danicopan 150 mg TID + eculizumab 900 mg q14d
[12] = Patient D, Week 24, danicopan 150 mg TID + eculizumab 900 mg q14d
[13] = Patient E, Baseline, before danicopan, on eculizumab 1200 mg q14d
[14] = Patient E, Week 12, danicopan 150 mg TID + eculizumab 1200 mg q14d
[15] = Patient E, Week 24, danicopan 150 mg TID + eculizumab 1200 mg q14d
[16] = Patient F, Baseline, before danicopan, on eculizumab 900 mg q14d
[17] = Patient F, Week 12, danicopan 150 mg TID + eculizumab 900 mg q14d
[18] = Patient F, Week 24, danicopan 150 mg TID + eculizumab 900 mg q14d
[19] = Patient G, Baseline, before danicopan, on eculizumab 1500 mg q14d
[20] = Patient G, Week 12, danicopan 100 mg TID + eculizumab 1500 mg q14d
[21] = Patient G, Week 24, danicopan 100 mg TID + eculizumab 1500 mg q14d
[22] = Patient H, Baseline, before danicopan, on eculizumab 900 mg q14d
[23] = Patient H, Week 12, danicopan 200 mg TID + eculizumab 900 mg q14d
[24] = Patient H, Week 24, danicopan 200 mg TID + eculizumab 900 mg q14d
[25] = Patient I, Baseline, before danicopan, on eculizumab 900 mg q14d
[26] = Patient I, Week 12, danicopan 100 mg TID + eculizumab 900 mg q14d
[27] = Patient I, Week 24, danicopan 200 mg TID + eculizumab 900 mg q14d
[28] = Patient J, Baseline, before danicopan, on eculizumab 1200 mg q14d
[29] = Patient J, Week 12, danicopan 100 mg TID + eculizumab 1200 mg q14d
[30] = Patient J, Week 24, danicopan 200 mg TID + eculizumab 1200 mg q14d
[31] = Patient K, Baseline, before danicopan, on eculizumab 900 mg q14d
[32] = Patient K, Week 12, danicopan 100 mg TID + eculizumab 900 mg q14d
[33] = Patient K, Week 24, danicopan 150 mg TID + eculizumab 900 mg q14d
[34] = Baseline, before danicopan, on eculizumab
[35] = Week 24, danicopan 100-200 mg TID + eculizumab

In the case of CC(=O)c1nn(CC(=O)N2C[C@H](F)C[C@H]2C(=O)Nc2cccc(Br)n2)c2ccc(-c3cnc(C)nc3)cc12 [Danicopan, danicopan], the Direct bilirubin [1] is reported as 0.44 mg/dL, the Hgb [1] is reported as 5.00 g/dL and the LDH [1] is reported as 1.7 ×ULN. For the same compound, the Reticulocytes [1] was 159 10^9/μL, the Total bilirubin [1] was 2.14 mg/dL and the Direct bilirubin [2] was 0.33 mg/dL. For the same compound, the Hgb [2] was 7.70 g/dL, the LDH [2] was 1.2 ×ULN and the Reticulocytes [2] was 121 10^9/μL. The Total bilirubin [2] was 1.80 mg/dL, the Direct bilirubin [3] was 0.48 mg/dL and the Hgb [3] was 8.50 g/dL. The LDH [3] was 1.1 ×ULN, the Reticulocytes [3] was 112 10^9/μL and the Total bilirubin [3] was 2.40 mg/dL. For the same compound, the Direct bilirubin [4] was 0.29 mg/dL, the Hgb [4] was 9.80 g/dL and the LDH [4] was 1.0 ×ULN. For the same compound, the Reticulocytes [4] was 250 10^9/μL, the Total bilirubin [4] was 1.24 mg/dL and the Direct bilirubin [5] was 0.18 mg/dL. For the same compound, the Hgb [5] was 11.8 g/dL, the LDH [5] was 0.8 ×ULN and the Reticulocytes [5] was 123 10^9/μL. For the same compound, the Total bilirubin [5] was 0.89 mg/dL, the Direct bilirubin [6] was 0.20 mg/dL and the Hgb [6] was 13.3 g/dL. For the same compound, the LDH [6] was 0.9 ×ULN, the Reticulocytes [6] was 162 10^9/μL and the Total bilirubin [6] was 0.81 mg/dL. For the same compound, the Direct bilirubin [7] was 0.24 mg/dL, the Hgb [7] was 7.60 g/dL and the LDH [7] was 0.8 ×ULN. The Reticulocytes [7] was 141 10^9/μL, the Total bilirubin [7] was 1.03 mg/dL and the Direct bilirubin [8] was 0.16 mg/dL. For the same compound, the Hgb [8] was 9.00 g/dL, the LDH [8] was 0.9 ×ULN and the Reticulocytes [8] was 97.0 10^9/μL. It also gave a Total bilirubin [8] of 0.580 mg/dL, a Direct bilirubin [9] of 0.16 mg/dL and a Hgb [9] of 9.70 g/dL. For the same compound, the LDH [9] was 0.9 ×ULN, the Reticulocytes [9] was 87.0 10^9/μL and the Total bilirubin [9] was 0.580 mg/dL. For the same compound, the Direct bilirubin [10] was 0.43 mg/dL, the Hgb [10] was 10.4 g/dL and the LDH [10] was 1.1 ×ULN. For the same compound, the Reticulocytes [10] was 191 10^9/μL, the Total bilirubin [10] was 2.26 mg/dL and the Direct bilirubin [11] was 0.15 mg/dL. For the same compound, the Hgb [11] was 11.7 g/dL, the LDH [11] was 1.2 ×ULN and the Reticulocytes [11] was 56.0 10^9/μL. For the same compound, the Total bilirubin [11] was 0.700 mg/dL, the Direct bilirubin [12] was 0.17 mg/dL and the Hgb [12] was 11.5 g/dL. The LDH [12] was 0.9 ×ULN, the Reticulocytes [12] was 56.0 10^9/μL and the Total bilirubin [12] was 0.650 mg/dL. It also gave a Direct bilirubin [13] of 0.72 mg/dL, a Hgb [13] of 8.60 g/dL and an LDH [13] of 1.2 ×ULN. The Reticulocytes [13] was 120 10^9/μL, the Total bilirubin [13] was 2.35 mg/dL and the Direct bilirubin [14] was 0.40 mg/dL. The Hgb [14] was 7.60 g/dL, the LDH [14] was 1.3 ×ULN and the Reticulocytes [14] was 179 10^9/μL. It also gave a Total bilirubin [14] of 2.22 mg/dL, a Direct bilirubin [15] of 0.60 mg/dL and a Hgb [15] of 9.40 g/dL. The LDH [15] was 1.2 ×ULN, the Reticulocytes [15] was 90.0 10^9/μL and the Total bilirubin [15] was 1.75 mg/dL. It also gave a Direct bilirubin [16] of 0.82 mg/dL, a Hgb [16] of 7.20 g/dL and an LDH [16] of 0.9 ×ULN. For the same compound, the Reticulocytes [16] was 405 10^9/μL, the Total bilirubin [16] was 3.93 mg/dL and the Direct bilirubin [17] was 0.49 mg/dL. For the same compound, the Hgb [17] was 9.30 g/dL, the LDH [17] was 0.9 ×ULN and the Reticulocytes [17] was 243 10^9/μL. It also gave a Total bilirubin [17] of 1.50 mg/dL, a Direct bilirubin [18] of 0.78 mg/dL and a Hgb [18] of 10.6 g/dL. The LDH [18] was 0.9 ×ULN, the Reticulocytes [18] was 253 10^9/μL and the Total bilirubin [18] was 2.95 mg/dL. For the same compound, the Direct bilirubin [19] was 0.39 mg/dL, the Hgb [19] was 7.10 g/dL and the LDH [19] was 0.6 ×ULN. The Reticulocytes [19] was 262 10^9/μL, the Total bilirubin [19] was 1.20 mg/dL and the Direct bilirubin [20] was 0.50 mg/dL. For the same compound, the Hgb [20] was 9.40 g/dL, the LDH [20] was 0.5 ×ULN and the Reticulocytes [20] was 200 10^9/μL. For the same compound, the Total bilirubin [20] was 1.90 mg/dL, the Direct bilirubin [21] was 0.39 mg/dL and the Hgb [21] was 9.10 g/dL. The LDH [21] was 0.9 ×ULN, the Reticulocytes [21] was 239 10^9/μL and the Total bilirubin [21] was 1.25 mg/dL. For the same compound, the Direct bilirubin [22] was 0.78 mg/dL, the Hgb [22] was 7.70 g/dL and the LDH [22] was 1.5 ×ULN. For the same compound, the Reticulocytes [22] was 238 10^9/μL, the Total bilirubin [22] was 2.18 mg/dL and the Direct bilirubin [23] was 0.53 mg/dL. The Hgb [23] was 7.30 g/dL, the LDH [23] was 1.8 ×ULN and the Reticulocytes [23] was 206 10^9/μL. It also gave a Total bilirubin [23] of 2.04 mg/dL, a Direct bilirubin [24] of 0.52 mg/dL and a Hgb [24] of 7.50 g/dL. For the same compound, the LDH [24] was 1.4 ×ULN, the Reticulocytes [24] was 169 10^9/μL and the Total bilirubin [24] was 1.57 mg/dL. It also gave a Direct bilirubin [25] of 0.23 mg/dL, a Hgb [25] of 7.70 g/dL and an LDH [25] of 0.9 ×ULN. The Reticulocytes [25] was 200 10^9/μL, the Total bilirubin [25] was 0.56 mg/dL and the Direct bilirubin [26] was 0.18 mg/dL. For the same compound, the Hgb [26] was 10.8 g/dL, the LDH [26] was 0.9 ×ULN and the Reticulocytes [26] was 110 10^9/μL. The Total bilirubin [26] was 0.34 mg/dL, the Direct bilirubin [27] was 0.18 mg/dL and the Hgb [27] was 11.5 g/dL. The LDH [27] was 0.9 ×ULN, the Reticulocytes [27] was 96 10^9/μL and the Total bilirubin [27] was 0.32 mg/dL. The Direct bilirubin [28] was 0.68 mg/dL, the Hgb [28] was 7.80 g/dL and the LDH [28] was 1.3 ×ULN. For the same compound, the Reticulocytes [28] was 258 10^9/μL, the Total bilirubin [28] was 3.24 mg/dL and the Hgb [29] was 10.2 g/dL. For the same compound, the Reticulocytes [29] was 292 10^9/μL, the Direct bilirubin [30] was 0.23 mg/dL and the Hgb [30] was 11.0 g/dL. For the same compound, the LDH [30] was 1.2 ×ULN, the Reticulocytes [30] was 152 10^9/μL and the Total bilirubin [30] was 1.14 mg/dL. The Direct bilirubin [31] was 0.64 mg/dL, the Hgb [31] was 8.40 g/dL and the LDH [31] was 0.9 ×ULN. The Reticulocytes [31] was 188 10^9/μL, the Total bilirubin [31] was 3.76 mg/dL and the Direct bilirubin [32] was 0.39 mg/dL. For the same compound, the Hgb [32] was 9.40 g/dL, the LDH [32] was 1.2 ×ULN and the Reticulocytes [32] was 88.0 10^9/μL. For the same compound, the Total bilirubin [32] was 1.85 mg/dL, the Direct bilirubin [33] was 0.31 mg/dL and the Hgb [33] was 11.5 g/dL. For the same compound, the LDH [33] was 1.1 ×ULN, the Reticulocytes [33] was 69.0 10^9/μL and the Total bilirubin [33] was 1.41 mg/dL. The raise in hemoglobin (addition of danicopan to eculizumab in patients that continued to be anemic) was “over 2 g/dL”, the “Direct bilirubin, mean” value [34] was 0.51 mg/dL and the “LDH, mean” value [34] was 1.06 ×ULN. For the same compound, the “Reticulocytes, mean” value [34] was 219 10^9/μL, the “Total bilirubin, mean” value [34] was 2.17 mg/dL and the “Direct bilirubin, mean” value [35] was 0.37 mg/dL. For the same compound, the “LDH, mean” value [35] was 1.04 ×ULN, the “Reticulocytes, mean” value [35] was 135 10^9/μL and the “Total bilirubin, mean” value [35] was 1.35 mg/dL. The “mean increase in Hgb” value (at 24 Weeks of treatment vs baseline, danicopan added to eculizumab) was 2.4 g/dL, the “mean increase in Hgb” value (danicopan added to background eculizumab) was 2.4 gram and the raise in hemoglobin (patient without transfusion history (Patient A), baseline 5 g/dL, at 24-weeks) was “over 3 g/dL”.
